# Source: patent US8536190B2, “Treating unwanted ocular conditions using an ascomycin macrolactam” (Allergan, Inc., priority 2007, dated 2013)
# What was measured:
# Format in all cases: in vivo, human
# [1] = Preventative treatment of ocular conditions during weekly docetaxel treatments; settings: person, medication containing 1.0% pimecrolimus during the entire course of docetaxel treatments
# Description: A person is diagnosed with metastatic breast cancer. Their physician decides that the best course of cancer therapy includes weekly docetaxel treatments. In order to reduce or prevent the occurrence of unwanted ocular conditions as a result of the docetaxel treatments, the physician also prescribes a medication containing 1.0% pimecrolimus to be administered during the entire course of docetaxel treatments.
# [2] = Treatment of epiphora (canalicular stenosis) after docetaxel chemotherapy; settings: person, docetaxel every three weeks, medication containing 0.03%, after one week of daily treatment
# Description: A physician diagnosis a person complaining of excessive tearing with epiphora. The physician determines that the cause of this excessive tearing was canalicular stenosis, and believes that this ocular condition was brought on by the person's prostate cancer therapy, which included docetaxel treatments every three weeks. The patient receives a medication containing 0.03% […].
# [3] = Treatment of epiphora (punctal stenosis) in a patient undergoing docetaxel treatments; settings: person, docetaxel every three weeks, medication containing 0.1% tacrolimus, after one week of daily treatment
# Description: A person undergoing docetaxel treatments every three weeks as part of their breast cancer therapy developed epiphora during the seventh week. […] The patient receives a medication containing 0.1% tacrolimus.
compound,measurement,setting,value
"CC[C@@H]1/C=C(\C)C[C@H](C)C[C@H](OC)[C@H]2O[C@@](O)(C(=O)C(=O)N3CCCC[C@H]3C(=O)O[C@H](/C(C)=C/[C@@H]3CC[C@H](Cl)[C@H](OC)C3)[C@H](C)[C@@H](O)CC1=O)[C@H](C)C[C@@H]2OC [pimecrolimus, Pimecrolimus]",occurrence of epiphora or symptoms of an ocular condition,[1],does not exhibit epiphora or show any symptoms of an ocular condition
Ascomycin [acromycin],excessive tearing (epiphora) after treatment,[2],the excessive tearing subsides
Tacrolimus,excessive tearing (epiphora) after treatment,[3],the excessive tearing subsides
